Results taken from patent US20200181132A1, “QUINOXALINE AND PYRIDOPYRAZINE DERIVATIVES AS PI3K-BETA INHIBITORS” (JANSSEN PHARMACEUTICA NV, priority 2017, published 2020).
Read-outs that look alike come from different tables or passages of the source.

Legend:
PIK3Cα_h = target: T1, PIK3Cα_h (Homo sapiens, UniProt P42336); experiment: Enzyme binding assay (KINOMEscan), PIK3Cα; settings: DiscoveRx
T1 construct: purchased DiscoveRx Corporation
Procedure: (§1) Enzyme Binding Assays (KINOMEscan®)
(§2) Kinase enzyme binding affinities of compounds disclosed herein were determined using the KINOMEscan technology performed by DiscoveRx Corporation, San Diego, Calif., USA (www.kinomescan.com). Table A reports the obtained Kd values (nM), with the Kd being the inhibitor binding constant: […]

[1] = system: phosphorylation of Akt at Ser473 in PC-3 cells; experiment: Cellular assay: phospho-Akt (Ser473) MSD ELISA in PC-3 cells; type: cell-based; settings: 60 min incubation with compound, read-out: IC50 pAkt_S473
Procedure: (§3) Cellular activity of PI3Kβ inhibitors was determined by quantifying the phosphorylation of Akt in PC-3 cells. Akt phosphorylated at Ser473 and Thr308 were measured using an enzyme-linked immunosorbent assay (ELISA; Meso Scale Discovery (MSD), Gaithersburg, Md.) and specific primary antibodies from MSD.
(§4) On day 1, PC3 cells (ATCC # […]) were seeded into PerkinElmer MW96 plates at 25.000 cells per well, in 75 μl complete culture medium (DMEM high glucose, AQmedia™, D0819, Sigma-Aldrich) containing 10% heat inactivated FCS and incubated at 37° C., 5% CO2 during 24 hours. On day 2, compound or DMSO (0.3%) was added and cells were further incubated for 60 min at 37° C., 5% CO2 in a total volume of 100 μl of medium.
(§5) The phosphoprotein assay was executed according to vendor instructions in the Phospho-Akt (Ser473) Assay Whole Cell Lysate Kit (MSD # K15100D-3) and the Phospho-Akt (Thr308) Assay Whole Cell Lysate Kit (MSD # K151DYD-3) using the lysis, blocking and wash buffer provided.
(§6) Briefly, at the end of the cell treatment period, media were removed by aspiration and adherent cells were lysed in 50 μl ice-cold lysis buffer. MSD plates are supplied pre-coated with capture antibodies for Phospho-Akt (Ser473 and Thr308). After blocking, lysates from tissue culture plates were added and plates were washed. Then, a solution containing the detection antibody (anti-total Akt conjugated with an electrochemiluminescent compound-MSD Sulfo-tag label) was added. The signals were detected using an MSD SECTOR Imager 6000 and are proportional to the phospho-Akt titres.
(§7) Data were processed. The percentage of inhibition was plotted against the log concentration of test compounds, and the sigmoidal log concentration-effect curve of best fit was calculated by nonlinear regression analysis. From these concentration-response curves, the IC50 values were calculated. Five concentrations were used for curve fitting.

PIK3Cγ_h = target: T2, PIK3Cγ_h (Homo sapiens, UniProt P48736); experiment: Enzyme binding assay (KINOMEscan), PIK3Cγ; settings: DiscoveRx
T2 construct: purchased DiscoveRx Corporation
Procedure: as §1, §2

MTOR_h = target: T3, MTOR_h (Homo sapiens, UniProt P42345); experiment: Enzyme binding assay (KINOMEscan), MTOR; settings: DiscoveRx
T3 construct: purchased DiscoveRx Corporation
Procedure: as §1, §2

PIK3Cδ_h = target: T4, PIK3Cδ_h (Homo sapiens, UniProt O00329); experiment: Enzyme binding assay (KINOMEscan), PIK3Cδ; settings: DiscoveRx
T4 construct: purchased DiscoveRx Corporation
T4 sequence (O00329 1-1044): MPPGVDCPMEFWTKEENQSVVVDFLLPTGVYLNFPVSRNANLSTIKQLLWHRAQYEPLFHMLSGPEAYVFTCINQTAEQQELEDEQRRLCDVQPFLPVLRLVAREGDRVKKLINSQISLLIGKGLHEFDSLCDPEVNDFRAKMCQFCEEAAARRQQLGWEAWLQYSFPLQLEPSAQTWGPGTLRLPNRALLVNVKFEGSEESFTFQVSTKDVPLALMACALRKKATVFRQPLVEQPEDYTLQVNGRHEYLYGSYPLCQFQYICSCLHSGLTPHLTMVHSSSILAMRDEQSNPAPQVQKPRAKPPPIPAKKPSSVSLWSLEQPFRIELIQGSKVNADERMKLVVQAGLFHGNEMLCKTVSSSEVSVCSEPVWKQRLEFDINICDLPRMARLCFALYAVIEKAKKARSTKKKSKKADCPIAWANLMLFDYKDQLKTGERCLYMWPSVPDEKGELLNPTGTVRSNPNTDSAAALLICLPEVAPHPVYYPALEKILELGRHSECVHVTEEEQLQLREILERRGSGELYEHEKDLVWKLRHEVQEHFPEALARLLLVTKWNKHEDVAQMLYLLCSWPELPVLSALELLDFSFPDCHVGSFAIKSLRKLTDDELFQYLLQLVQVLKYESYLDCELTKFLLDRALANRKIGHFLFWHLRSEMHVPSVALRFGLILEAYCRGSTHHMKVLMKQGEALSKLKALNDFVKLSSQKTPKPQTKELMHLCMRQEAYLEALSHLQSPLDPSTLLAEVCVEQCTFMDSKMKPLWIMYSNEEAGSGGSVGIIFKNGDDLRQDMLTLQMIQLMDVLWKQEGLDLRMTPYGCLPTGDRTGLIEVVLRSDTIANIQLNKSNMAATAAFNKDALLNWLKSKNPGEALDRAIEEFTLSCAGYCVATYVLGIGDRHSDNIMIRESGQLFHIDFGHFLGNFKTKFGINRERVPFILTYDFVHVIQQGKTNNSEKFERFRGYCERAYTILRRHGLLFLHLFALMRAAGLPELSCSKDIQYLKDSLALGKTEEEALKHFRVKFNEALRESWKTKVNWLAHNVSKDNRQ
Procedure: as §1, §2

[2] = system: phosphorylation of Akt at Thr308 in PC-3 cells; experiment: Cellular assay: phospho-Akt (Thr308) MSD ELISA in PC-3 cells; type: cell-based; settings: 60 min incubation with compound, read-out: IC50 pAkt_Thr308
Procedure: as §3, §4, §5, §6, §7

PIK3Cβ_h = target: T5, PIK3Cβ_h (Homo sapiens, UniProt P42338); experiment: Enzyme binding assay (KINOMEscan), PIK3Cβ; settings: DiscoveRx
T5 construct: purchased DiscoveRx Corporation
Procedure: as §1, §2

T1 sequence (P42336 whole entry): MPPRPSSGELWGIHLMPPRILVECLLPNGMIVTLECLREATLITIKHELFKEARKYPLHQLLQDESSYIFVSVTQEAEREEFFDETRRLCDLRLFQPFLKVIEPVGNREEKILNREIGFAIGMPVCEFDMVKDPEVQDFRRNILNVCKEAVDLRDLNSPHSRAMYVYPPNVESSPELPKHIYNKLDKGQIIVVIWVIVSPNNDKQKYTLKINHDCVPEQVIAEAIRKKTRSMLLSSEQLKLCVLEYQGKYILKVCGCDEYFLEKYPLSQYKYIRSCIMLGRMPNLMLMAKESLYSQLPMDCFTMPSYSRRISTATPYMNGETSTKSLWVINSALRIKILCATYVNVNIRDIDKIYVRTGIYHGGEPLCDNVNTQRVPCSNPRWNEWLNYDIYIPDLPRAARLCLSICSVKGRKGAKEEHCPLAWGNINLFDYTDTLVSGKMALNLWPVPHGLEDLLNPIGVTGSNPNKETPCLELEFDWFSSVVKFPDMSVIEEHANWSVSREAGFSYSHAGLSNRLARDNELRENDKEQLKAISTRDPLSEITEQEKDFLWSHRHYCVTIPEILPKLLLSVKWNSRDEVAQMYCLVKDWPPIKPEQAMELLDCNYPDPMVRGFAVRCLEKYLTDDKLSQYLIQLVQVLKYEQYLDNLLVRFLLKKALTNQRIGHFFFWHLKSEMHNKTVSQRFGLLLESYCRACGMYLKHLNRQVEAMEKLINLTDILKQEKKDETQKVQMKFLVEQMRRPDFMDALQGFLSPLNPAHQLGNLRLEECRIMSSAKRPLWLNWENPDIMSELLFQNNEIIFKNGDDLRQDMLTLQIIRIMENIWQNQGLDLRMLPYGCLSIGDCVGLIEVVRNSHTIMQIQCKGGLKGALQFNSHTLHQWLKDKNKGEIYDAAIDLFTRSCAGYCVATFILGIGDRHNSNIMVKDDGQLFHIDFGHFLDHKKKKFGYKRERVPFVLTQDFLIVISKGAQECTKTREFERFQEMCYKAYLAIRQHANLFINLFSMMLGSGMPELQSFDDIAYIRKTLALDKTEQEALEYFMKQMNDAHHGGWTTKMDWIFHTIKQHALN
T2 sequence (P48736 whole entry): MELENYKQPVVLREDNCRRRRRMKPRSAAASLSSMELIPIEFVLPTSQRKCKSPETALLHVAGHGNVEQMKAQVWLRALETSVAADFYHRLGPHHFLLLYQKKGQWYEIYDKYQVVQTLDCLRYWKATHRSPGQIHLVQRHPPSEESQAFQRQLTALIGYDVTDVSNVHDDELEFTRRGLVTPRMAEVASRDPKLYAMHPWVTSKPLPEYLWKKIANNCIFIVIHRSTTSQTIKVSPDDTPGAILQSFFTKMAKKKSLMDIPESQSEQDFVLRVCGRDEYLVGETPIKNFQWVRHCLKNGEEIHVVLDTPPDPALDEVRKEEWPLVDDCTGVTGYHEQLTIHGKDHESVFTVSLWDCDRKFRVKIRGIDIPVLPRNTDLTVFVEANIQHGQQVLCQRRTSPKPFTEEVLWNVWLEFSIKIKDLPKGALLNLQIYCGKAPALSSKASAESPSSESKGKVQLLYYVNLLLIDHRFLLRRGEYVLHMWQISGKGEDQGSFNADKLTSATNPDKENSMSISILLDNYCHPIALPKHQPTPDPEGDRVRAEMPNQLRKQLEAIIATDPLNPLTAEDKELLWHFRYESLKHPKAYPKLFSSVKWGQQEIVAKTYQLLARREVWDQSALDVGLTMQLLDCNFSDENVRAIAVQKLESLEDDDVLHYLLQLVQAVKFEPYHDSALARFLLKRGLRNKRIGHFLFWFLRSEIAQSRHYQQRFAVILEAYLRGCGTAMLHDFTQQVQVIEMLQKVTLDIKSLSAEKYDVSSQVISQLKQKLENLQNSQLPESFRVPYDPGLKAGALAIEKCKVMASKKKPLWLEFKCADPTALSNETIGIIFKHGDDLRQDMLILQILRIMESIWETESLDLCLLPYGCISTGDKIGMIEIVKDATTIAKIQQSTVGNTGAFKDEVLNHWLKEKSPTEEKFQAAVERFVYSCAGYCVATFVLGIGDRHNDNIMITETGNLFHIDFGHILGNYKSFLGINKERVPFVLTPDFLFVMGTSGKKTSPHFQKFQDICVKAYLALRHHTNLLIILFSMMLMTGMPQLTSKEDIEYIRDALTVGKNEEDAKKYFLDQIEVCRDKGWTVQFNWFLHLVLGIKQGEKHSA
T5 sequence (P42338 whole entry): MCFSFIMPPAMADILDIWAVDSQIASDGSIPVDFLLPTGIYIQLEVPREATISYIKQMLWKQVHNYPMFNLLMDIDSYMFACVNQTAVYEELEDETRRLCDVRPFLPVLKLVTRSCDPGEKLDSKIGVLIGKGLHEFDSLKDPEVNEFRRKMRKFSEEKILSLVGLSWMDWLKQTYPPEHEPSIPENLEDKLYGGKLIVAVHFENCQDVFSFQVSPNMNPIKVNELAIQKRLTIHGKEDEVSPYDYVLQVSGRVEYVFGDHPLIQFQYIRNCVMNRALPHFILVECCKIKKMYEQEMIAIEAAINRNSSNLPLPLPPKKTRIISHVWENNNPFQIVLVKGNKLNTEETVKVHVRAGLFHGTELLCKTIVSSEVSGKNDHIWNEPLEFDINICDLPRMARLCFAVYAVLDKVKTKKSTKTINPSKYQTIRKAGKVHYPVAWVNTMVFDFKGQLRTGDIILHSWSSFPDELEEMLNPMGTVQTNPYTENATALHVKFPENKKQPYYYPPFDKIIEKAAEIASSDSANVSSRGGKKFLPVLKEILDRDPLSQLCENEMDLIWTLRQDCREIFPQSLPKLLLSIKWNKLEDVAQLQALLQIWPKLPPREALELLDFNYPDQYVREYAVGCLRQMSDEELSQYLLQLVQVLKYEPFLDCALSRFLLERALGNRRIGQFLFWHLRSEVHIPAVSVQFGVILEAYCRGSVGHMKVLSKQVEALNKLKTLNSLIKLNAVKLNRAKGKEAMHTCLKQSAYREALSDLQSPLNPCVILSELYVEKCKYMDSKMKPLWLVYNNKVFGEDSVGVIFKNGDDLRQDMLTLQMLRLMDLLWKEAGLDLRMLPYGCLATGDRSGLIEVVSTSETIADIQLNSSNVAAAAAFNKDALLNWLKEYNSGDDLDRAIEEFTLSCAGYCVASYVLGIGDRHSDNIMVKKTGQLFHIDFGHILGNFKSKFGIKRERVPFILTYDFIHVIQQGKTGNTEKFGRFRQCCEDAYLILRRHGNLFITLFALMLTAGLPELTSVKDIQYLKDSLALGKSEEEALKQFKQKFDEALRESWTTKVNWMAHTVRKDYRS

Row | SMILES | Kd (PIK3Cα_h) | IC50 [1] | melting point | Kd (PIK3Cγ_h) | Kd (MTOR_h) | Kd (PIK3Cδ_h) | IC50 [2] | Kd (PIK3Cβ_h) | IC50 ([1]; Homo sapiens, PC-3, 1 h) | IC50 ([2]; Homo sapiens, PC-3, 1 h)
1 | CN(C)CCNC(=O)c1cc(C2CCCN2c2ccnc(F)c2)c2nc(N3CCOCC3)cnc2c1 (single isomer, unassigned) [Compound 38] | 11.5 µM | 0.011 µM | 177 °C | 20.9 µM | > 30.2 µM | 1.41 µM | 0.059 µM | 0.008 µM |  | 
2 | O=C(NCCO)c1cc(C2CCCN2c2cncc(F)c2)c2nc(N3CCOCC3)cnc2c1 (stereo not drawn) [Compound 43] | 0.447 µM |  | 191 °C | 1 µM | 11.5 µM | 0.166 µM |  | 0.003 µM | ~0.002 µM | 0.04 µM
3 | CNCCNC(=O)c1cc(C2CCCN2c2ccnc(Cl)c2)c2nc(N3CCOCC3)cnc2c1 (stereo not drawn) [Compound 48] | 10 µM |  | 80 °C | 18.2 µM | > 30.2 µM | 0.372 µM |  | 0.002 µM | > 0.513 µM | > 0.513 µM
4 | Cc1nccc(N2CCCC2c2cc(C(=O)N(C)C)cc3ncc(N4CCOCC4)nc23)n1 (stereo not drawn) [Compound 4] | 28.8 µM |  | 110 °C | > 30.2 µM | > 30.2 µM | 22.4 µM |  | 1.55 µM | > 0.513 µM | > 0.513 µM
5 | CC(Nc1cncc(F)c1)c1cc(C(=O)NCCN(C)C)cc2ncc(N3CCOCC3)nc12 (single isomer, unassigned) [Compound 35] | 15.5 µM | > 0.513 µM | 190 °C | 4.79 µM | 12 µM | 1.44 µM | > 0.513 µM | 0.008 µM |  | 
6 | Cc1ccncc1CNc1cc(C(=O)NCCO)cc2ncc(N3CCOCC3)nc12 [Compound 28] | 16.2 µM |  | 244 °C | 25.7 µM | 30.9 µM | 15.5 µM |  | 1.26 µM | > 0.513 µM | > 0.513 µM
7 | CC(Nc1cncc(F)c1)c1cc(C(=O)N2CC3(C2)CS(=O)(=O)C3)cc2ncc(N3CCOCC3)nc12 (single isomer, unassigned) [Compound 31] | 2.82 µM |  | 160 °C | 16.6 µM | > 30.2 µM | 1.48 µM | ~0.072 µM | 0.009 µM | > 0.513 µM | 
8 | CC(Nc1cncc(F)c1)c1cc(C(=O)NCCN(C)C)cc2ncc(N3CCOCC3)nc12 (single isomer, unassigned) [Compound 34] | 2.19 µM | 0.014 µM | 194 °C | 3.89 µM | > 30.2 µM | 0.166 µM | 0.007 µM | 0.0004 µM |  | 
9 | CC(Nc1cncc(F)c1)c1cc(C(=O)N2CC3(C2)CS(=O)(=O)C3)cc2ncc(N3CCOCC3)nc12 (single isomer, unassigned) [Compound 32] | > 30.2 µM | > 0.513 µM | 180 °C | > 30.2 µM | > 30.2 µM | 22.4 µM | > 0.513 µM | 5.49 µM |  | 
